# Values of other authors, collected in US20060024236A1, “Bowel preparation for virtual colonoscopy” (priority 2004, published 2006).
# Legend:
# [1] = compared with PEG, cleansing before CC, meta-analysis of trials
# [2] = compared with PEG
Structure (SMILES),efficacy of colonic cleansing [1],tolerability of oral cleansing agent [1],residual colonic fluid at VC [2],opacification of residual colonic fluid (oral),"tagging of residual fecal material to distinguish it from true colonic polyps (oral, given as part of the colon prep)",interference with subsequent CC examination (orally administered)
"O=P(O)(O)O [NaP, sodium phosphate]",more efficacious,better tolerated,significantly less residual colonic fluid,–,–,–
O=S(=O)([O-])[O-].[Ba+2] [barium sulfate],–,–,–,does not adequately opacify,effective,does not interfere
